According to patent US8569242B2, “Method of treating degenerative disorders of the nervous system” (The Regents of the University of California, priority 2005, dated 2013):
Several values for one entry are separate records, joined by “and”; a condition that tells them apart may be missing. Equal entries are not always repeated.

Key:
primary microglia = experiment: Morphometry of microglia activation (Isolectin B4 staining, cell size); type: cell-based, mouse
Experimental: Culture of primary microglia cells. Microglia were isolated from cultures of mixed cortical cells as described (59). In brief, cortices from P1 mice were isolated and digested with trypsin (0.4%) for 20 minutes at 37° C. Cells from 4 pups were plated onto PDL-coated 75 cm2 tissue-culture flasks. The culture medium (DMEM, 10% heat-inactivated FBS, and 1% Pen/Strep) was changed on day 2. After 2-3 weeks in culture, the microglia were removed by the addition of 12 mM lidocaine (Sigma-Aldrich, St. Louis, Mo.) and orbital shaking (180 rpm) for 20 minutes at 37° C. The cells were centrifuged (350×G) and the pellet was resuspended in complete medium and plated onto PDL-coated tissue culture dishes. Microglia cell cultures were >95% pure as determined with three different markers, IsoB4, IBA-1 and CD11b. To immobilize fibrinogen, tissue culture dishes were incubated overnight with 50 μg/mL fibrinogen (Calbiochem, San Diego, Calif.) in 20 mM Tris (pH 7.5) and 0.1 M NaCl at 37° C. for all fibrinogen treatments. To serve as positive controls, LPS (Sigma-Aldrich, St. Louis, Mo.) was added to the media at 1 μg/mL.
Morphometry. Primary microglia were used for all morphologic analysis. Cells were plated on coated fibrinogen or in the presence of LPS for 72 hours. Microglia were fixed with methanol and immunostained with Isolectin B4 (1:300, Sigma-Aldrich, St. Louis, Mo.). Activated microglia were quantificated as those cells larger than 2,000 μm^2. Blocking experiments involved the daily administration of rat anti-CD11b (10 μg/mL, eBioscience, San Diego, Calif.), γ^377-395 peptide (200 μM) or rat IgG (10 μg/mL, Jackson ImmunoResearch Laboratories, West Grove, Pa.). Results were obtained from six separate experiments performed in duplicates. 250 cells per condition were counted for each individual experiment. Statistical calculations were made by using Student's t test.

[1] = tested on: primary murine microglia and a murine microglia cell line (BV2); experiment: Vybrant phagocytosis assay in microglia; type: cell-based, mouse; conditions: fluorescent E. coli; stimulation with immobilized fibrinogen or LPS
Experimental: Phagocytosis assay. Phagocytosis assays were performed on both primary murine microglia and a murine microglia cell line (BV2). BV2 cells are an established cell line used to study microglia responses (46). BV2 cells were routinely passaged in DMEM, 20% heat inactivated FBS, and 1% Pen/Strep. Microglia phagocytosis was assessed using the Vybrant phagocytosis assay kit (Molecular Probes, Eugene, Oreg.) according to the manufacturer's recommendations. Microglia were cultured in 96-well plates at 5,000 cells/well for 36 hours at 37° C. Blocking experiments included the addition of LY294002 (1 μM, Cell Signaling, Beverly, Mass.), rat anti-CD11b ([…], eBioscience, San Diego, Calif.), rat anti-TLR4 (10 μg/mL, eBioscience, San Diego, Calif.) or rat IgG (10 μg/mL, Jackson ImmunoResearch Laboratories, West Grove, Pa.) to the media. Results were obtained from four separate experiments performed in triplicates. Statistical calculations were made by using Student's t-test.

Akt = Akt phosphorylation immunoblot in microglia; type: cell-based, mouse; conditions: fibrinogen or LPS 6 hours; densitometry
Experimental: (§1) Immunoblots. Western blots were performed using standard protocols (55). Microglia were serum-starved overnight and plated on fibrinogen or with LPS for 6 hours. Lysates were electrophoresed on 4-12% gradient SDS-PAGE gels and probed with phospho and total Akt antibodies (1:1000, Cell Signaling, Beverly, Mass.). RhoA activation was performed as described (60). Briefly, 2×107 microglia were plated on fibrinogen for 6 hours or with LPS for 10 minutes. Cell lysates were incubated with GST-Rhotekin agarose beads (kindly provided by Dr. Joan Heller Brown, UCSD) for 45 minutes at 4° C. The beads were washed, resuspended in Laemmli sample buffer, and electophoresed on a 15% SDS-PAGE gel. Activated and total Rho were detected with mouse anti-RhoA (1:500, Santa Cruz Biotechnology, Santa Cruz, Calif.). Densitometry was performed using the NIH Scion Image software using three blots from three separate experiments.

RhoA = RhoA activation (GST-Rhotekin pull-down, immunoblot) in microglia; type: cell-based, mouse; conditions: fibrinogen 6 hours, LPS 10 minutes; densitometry
Experimental: as §1

fibrin = biological target: T1, fibrin (Mus musculus, UniProt E9PV24+Q8K0E8+Q8VCM7); experiment: In vitro fibrin polymerization turbidity assay in plasma; type: biochemical; conditions: citrate plasma, bovine thrombin 0.2 U/ml, OD350
T1 construct: from tissue; host or cells: citrated mouse plasma, diluted tenfold
T1 sequence (Q8VCM7 26-436): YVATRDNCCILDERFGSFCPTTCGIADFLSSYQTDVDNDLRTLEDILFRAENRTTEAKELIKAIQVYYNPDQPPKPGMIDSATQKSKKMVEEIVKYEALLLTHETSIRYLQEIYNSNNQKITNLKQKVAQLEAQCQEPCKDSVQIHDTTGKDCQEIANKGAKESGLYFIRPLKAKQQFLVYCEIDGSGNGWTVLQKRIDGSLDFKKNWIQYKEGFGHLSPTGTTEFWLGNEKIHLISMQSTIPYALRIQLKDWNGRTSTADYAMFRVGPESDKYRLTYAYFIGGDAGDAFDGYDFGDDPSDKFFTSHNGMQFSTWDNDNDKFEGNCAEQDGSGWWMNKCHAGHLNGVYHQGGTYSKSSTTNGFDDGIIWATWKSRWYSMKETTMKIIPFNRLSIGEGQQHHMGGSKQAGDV
T1 sequence (E9PV24 37-789 limits assumed): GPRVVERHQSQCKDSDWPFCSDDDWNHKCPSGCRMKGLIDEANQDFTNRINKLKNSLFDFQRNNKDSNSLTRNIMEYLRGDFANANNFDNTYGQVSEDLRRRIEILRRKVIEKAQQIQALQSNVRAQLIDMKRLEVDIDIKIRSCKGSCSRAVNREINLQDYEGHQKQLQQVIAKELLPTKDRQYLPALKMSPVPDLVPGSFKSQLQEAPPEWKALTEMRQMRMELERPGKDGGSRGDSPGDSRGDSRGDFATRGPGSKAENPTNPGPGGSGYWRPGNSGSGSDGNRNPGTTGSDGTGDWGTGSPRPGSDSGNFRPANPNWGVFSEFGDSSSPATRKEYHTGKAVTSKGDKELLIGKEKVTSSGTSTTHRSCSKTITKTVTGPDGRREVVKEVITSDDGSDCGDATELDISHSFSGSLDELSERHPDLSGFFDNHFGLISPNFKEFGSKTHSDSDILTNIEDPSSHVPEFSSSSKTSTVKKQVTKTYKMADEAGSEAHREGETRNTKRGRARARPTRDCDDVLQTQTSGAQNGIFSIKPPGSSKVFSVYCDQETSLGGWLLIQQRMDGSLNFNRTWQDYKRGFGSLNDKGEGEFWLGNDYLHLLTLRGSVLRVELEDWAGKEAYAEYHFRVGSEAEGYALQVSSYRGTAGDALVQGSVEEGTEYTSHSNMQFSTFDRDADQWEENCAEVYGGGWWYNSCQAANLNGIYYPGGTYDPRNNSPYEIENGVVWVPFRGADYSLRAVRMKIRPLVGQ
T1 sequence (Q8K0E8 35-481 limits assumed): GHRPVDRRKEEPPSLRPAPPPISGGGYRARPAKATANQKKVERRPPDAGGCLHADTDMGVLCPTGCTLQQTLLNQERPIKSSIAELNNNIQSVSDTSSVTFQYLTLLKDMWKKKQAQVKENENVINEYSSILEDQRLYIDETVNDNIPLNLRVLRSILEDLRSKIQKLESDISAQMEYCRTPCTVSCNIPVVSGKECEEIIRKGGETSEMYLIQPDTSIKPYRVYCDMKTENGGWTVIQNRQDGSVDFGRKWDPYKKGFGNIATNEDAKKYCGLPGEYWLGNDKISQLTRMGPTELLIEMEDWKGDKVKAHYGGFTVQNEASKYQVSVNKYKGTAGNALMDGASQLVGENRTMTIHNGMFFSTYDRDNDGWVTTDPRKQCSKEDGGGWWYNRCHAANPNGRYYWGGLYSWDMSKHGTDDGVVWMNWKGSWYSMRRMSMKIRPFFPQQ
Experimental: Hematological Analyses. Citrated plasma was prepared from mice administered intranasally 30 μg or 90 μg of γ^377-395 peptide or saline control daily for seven days. Plasma clotting times were measured by combining 10 μl of citrated plasma with 10 μl of 2 U/ml bovine thrombin (Enzyme Research Laboratories, South Bend, Ind., USA) and 40 mM. CaCl2 in a weigh boatfloating in a 37° C. water bath. Time to clot was determined by mixing with a toothpick. Plasma thrombin times were established as described previously (15). Fibrin polymerization was evaluated by standard turbidity assays using plasma. Briefly, citrate plasma (diluted tenfold in 20 mM HEPES, pH 7.4, containing 0.15 M NaCl and 5 mM-amino caproic acid) was combined with bovine thrombin (final concentration 0.2 U/ml; Enzyme Research Laboratories, South Bend, Ind., USA), and Ca^2+ (10 mM), and OD350 measurements were taken every 30 seconds.

| Substance | changes in microglia morphology (primary microglia; soluble, not immobilized, fibrinogen, data not shown) | % of activated microglia (primary microglia; stimulation with immobilized fibrinogen alone, 72 hours, activated = cells larger than 2,000 μm^2) | increase in phagocytosis as compared to untreated controls [1] [%] | increase in Akt phosphorylation (Akt) [fold] | increase of active RhoA (RhoA) [fold] | effect on fibrin polymerization (fibrin) | effect on fibrin polymerization (fibrin; listed as GPRP) |
| --- | --- | --- | --- | --- | --- | --- | --- |
| Fibrinogen | did not induce changes in microglia morphology | 85.5±1.4% and 71±4.9% | 65.3 | 24 | 1.9 | – | – |
| GPRP [GPRP peptide, reference compound] | – | – | – | – | – | inhibits | significantly attenuated |
| Lipopolysaccharide [LPS, reference compound] | – | – | 39.1 | 34 | 2.4 | – | – |
